Source: patent US8426136B2, “Epigenetic modifications at TNFα as biomarkers for sensitivity to Smac mimetic-induced apoptosis” (Joyant Pharmaceuticals, Inc., priority 2009, dated 2013)

Experiments:
TNFα mRNA [1] = assay: TNFα mRNA by semiquantitative RT-PCR in Colo205 cells; format: cell-based, human
Procedure: (§1) This procedure describes the semi-quantitative measurement of human TNFα mRNA levels in human cell culture.
(§2) Cell Treatment: cells were plated in 6 well dishes at 1.5×10^5 cells/ml in a volume of 2.5 ml, next day cells were treated −/+50 ul of 5 μM Smac Mimetic, JP1010, (final concentration: 100 nM) for 4 hr.
(§3) RNA Isolation: cells were washed 2× with 2 ml PBS followed by isolation of RNA from 6 well dishes using Qiagen RNAeasy kit or TRIzol reagent (Invitrogen) according to manufacturer's protocol. RNA isolation with TRIzol was conducted by adding 1 ml of TRIzol reagent to each well and pipetting up and down several times before transferring lysate to 1.5 ml microfuge tube. […] RNA concentration was measured. […]
(§4) Semi-quantitative RT-PCR for TNFα and Actin were performed as follows: Control semi-quantitative Actin PCR were conducted in a 25 ul reaction mixture with the following cycle condition: 94° C. […] TNFa semi quantitative PCR were conducted in a 25 ul reaction mixture with the following cycle conditions: 94° C.-2 min, 30-35 cycles (depending on cell line) of 94° C.-30 sec, 59° C.-30 sec, 72° C.-1 min, followed by 72° C. for 10 min. […]

cIAP2 mRNA = cIAP2 mRNA level in Colo205 cells; format: cell-based; details: MS-275 alone
[2] = system: acetylated Histone H4 levels at the TNFα locus; assay: ChIP of acetylated histone H4 at the TNFα locus in MDA-MB231 cells; format: cell-based; details: 5 mM NaBu
Procedure: Purpose: This procedure evaluates the localization of specific proteins or their modified forms on chromatin. For our purpose to specifically evaluate the levels of modified histones and cofactors bound to the Tumor Necrosis Factor (TNFa) gene promoter.
ChIP Lysis buffer contained 1% SDS, 10 mM EDTA, 50 mM Tris-HCl, pH8.1, 1× protease inhibitor cocktail (Roche). ChIP Dilution buffer contained 1% Triton x-100, 2 mM EDTA, 150 mM NaCl, 20 mM Tris-HCl, pH8.1, 1× protease inhibitor cocktail (Roche). Wash Buffer I contained 0.1% SDS, 1% Triton x-100, 2 mM EDTA, 150 mM NaCl, 20 mM Tris-HCl, pH8.1. Wash Buffer II contained wash buffer I with 500 mM NaCl. Wash Buffer III contained 0.25M LiCl, 1% NP-40, 1% deoxycholate, 1 mM EDTA, 10 mM Tris-HCl, pH8.1. TE buffer contained 10 mM Tris-HCl, pH 7.5, 0.1 mM EDTA. ChIP Extraction buffer contained 1% SDS, 0.1M NaHCO3. Antibodies used include anti-histone H3 (Abcam, ab1791), anti-hyperacetylated histone H4 (Millipore, 06-946), anti-dimethyl-histone H3k4 (Millipore, 07-030), anti-dimethyl histone H3K9 (Abcam, ab1220), anti-histone H4 (Millipore, 05-858), anti-acetylated H3 (Millipore, 06-599), anti-acetylated H4 (Millipore, 06-866).
Cells were plated on either 10 cm or 15 cm tissue culture dishes (˜1×10^6). At 80-100% confluency cells were crosslinked by the addition of 37% formaldehyde (final concentration 1%) directly to the cell medium. […]

TNFα mRNA [3] = assay: TNFα mRNA by RT-PCR in H2073 cells; format: cell-based, human; details: FIG. 5 legend
Procedure: as §1, §2, §3, §4

SMILES	Smac mimetic-induced TNFα production (TNFα mRNA [1]; FIG. 4 legend)	production of TNFα mRNA (TNFα mRNA [1]; agent alone)	mRNA level of cIAP2 (cIAP2 mRNA)	increase of the level of acetylated H4 [2]	Smac mimetic-induced TNFα production (TNFα mRNA [3])
Nc1ccccc1NC(=O)c1ccc(CNC(=O)OCc2cccnc2)cc1 [MS-275]	Primes	increased	increased		
CCCC(=O)[O-].[Na+] [NaBu, Sodium butyrate]				4-5 fold	increases
